What follows are cell lines tested with CC[C@@H]1C(=O)N(C)c2cnc(Nc3ccc(C(=O)NC4CCN(C)CC4)cc3OC)nc2N1C1CCCC1 [BI-2536] + COc1cccc2cc(-c3nc([C@H]4CC[C@H](C(=O)O)CC4)n4ncnc(N)c34)[nH]c12 [OSI-027] (partner 0.5 µM) (assay: relative viability (nuclei count vs DMSO), 5 days (fraction); higher = more cells survive). Details: first compound 0.01 µM.
Summary of the method: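 Relative viability divides the nuclei count in treated wells by that in vehicle wells. Lung cancer cell lines were seeded in 1536-well plates, dosed by pin tool the next day, and fixed and stained after 5 days in one step with final 0.05% Triton X-100, 1% formaldehyde and 1 ug/ml Hoechst. Dosing was a single drug or a fixed anchor-drug dose plus five library-drug doses (not always all listed) in √10 steps, and values are medians of duplicate plates imaged at 4×.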

Cell Line	relative viability
NCI-H2126	0.832
EMC-BAC-2	0.381
NCI-H2085	0.833
HCC-366	0.835
NCI-H1666	0.881
NCI-H596	0.688
LK-2	0.202
NCI-H2087	0.564
SK-MES-1	0.601
H3255	0.51
COR-L23	0.864
COR-L 105	0.69
LOU-NH91	0.716
NCI-H2405	0.609
HOP-62	0.803
HCC-44	0.483
LU99A	0.281
BEN	0.312
HARA	0.512
HCC-78	0.376
NCI-H322M	0.52
LCLC-97TM1	0.575
NCI-H2009	0.613
A-427	0.464
NCI-H661	0.697
NCI-H1734	0.57
NCI-H460	0.676
SK-LU-1	0.341
201T	0.331

Same assay, conditions: first compound 0.03162 µM

Cell Line	relative viability
NCI-H838	0.444
NCI-H520	0.289
NCI-H2126	0.641
EMC-BAC-2	0.358
NCI-H2085	0.602
HCC-366	0.856
NCI-H1666	0.842
NCI-H596	0.825
LK-2	0.183
NCI-H2087	0.541
SK-MES-1	0.458
H3255	0.586
COR-L23	0.484
COR-L 105	0.596
LOU-NH91	0.697
NCI-H2405	0.64

Cell Line	relative viability
HOP-62	0.724
HCC-44	0.527
LU99A	0.28
BEN	0.261
HARA	0.738
HCC-78	0.359
NCI-H322M	0.52
LCLC-97TM1	0.538
NCI-H2009	0.543
A-427	0.471
NCI-H661	0.379
NCI-H1734	0.494
NCI-H460	0.327
NCI-H2347	0.464
SK-LU-1	0.278
201T	0.715

Same assay, conditions: first compound 0.1 µM

Cell Line	relative viability
NCI-H838	0.393
NCI-H520	0.195
NCI-H2126	0.472
EMC-BAC-2	0.249
NCI-H2085	0.282
HCC-366	0.146
NCI-H1666	0.686
NCI-H596	0.51
LK-2	0.169
NCI-H2087	0.186
SK-MES-1	0.178
H3255	0.188
COR-L23	0.216
COR-L 105	0.35
LOU-NH91	0.695
NCI-H2405	0.481

Cell Line	relative viability
HOP-62	0.526
HCC-44	0.13
LU99A	0.181
BEN	0.272
HARA	0.152
HCC-78	0.317
NCI-H322M	0.37
LCLC-97TM1	0.434
NCI-H2009	0.259
A-427	0.251
NCI-H661	0.35
NCI-H1734	0.206
NCI-H460	0.247
NCI-H2347	0.346
SK-LU-1	0.198
201T	0.728

Same assay, conditions: first compound 0.3162 µM

Cell Line	relative viability
NCI-H838	0.146
NCI-H520	0.292
NCI-H2126	0.276
EMC-BAC-2	0.193
NCI-H2085	0.153
HCC-366	0.0244
NCI-H1666	0.378
NCI-H596	0.191
LK-2	0.158
NCI-H2087	0.101
SK-MES-1	0.173
H3255	0.259
COR-L23	0.107
COR-L 105	0.254
LOU-NH91	0.416
NCI-H2405	0.163

Cell Line	relative viability
HOP-62	0.268
HCC-44	0.135
LU99A	0.161
BEN	0.233
HARA	0.0483
HCC-78	0.363
NCI-H322M	0.411
LCLC-97TM1	0.138
NCI-H2009	0.173
A-427	0.12
NCI-H661	0.208
NCI-H1734	0.179
NCI-H460	0.0156
NCI-H2347	0.285
SK-LU-1	0.172
201T	0.0923

Same assay, conditions: first compound 1 µM

Cell Line	relative viability
NCI-H838	0.149
NCI-H520	0.2
NCI-H2126	0.218
EMC-BAC-2	0.184
NCI-H2085	0.272
HCC-366	0.0284
NCI-H1666	0.311
NCI-H596	0.304
LK-2	0.151
NCI-H2087	0.0808
SK-MES-1	0.182
H3255	0.323
COR-L23	0.139
COR-L 105	0.214
LOU-NH91	0.244
NCI-H2405	0.312

Cell Line	relative viability
HOP-62	0.181
HCC-44	0.12
LU99A	0.17
BEN	0.169
HARA	0.0491
HCC-78	0.198
NCI-H322M	0.305
LCLC-97TM1	0.167
NCI-H2009	0.154
A-427	0.119
NCI-H661	0.209
NCI-H1734	0.19
NCI-H460	0.0121
NCI-H2347	0.276
SK-LU-1	0.146
201T	0.16

— the supplement of paper PMC10307832
